Data as given in patent publication US9814747B2, “Methods for inhibiting HIV-1 activity by inhibitory mechanisms of extracts of Guaiacum officinale L. (Zygophyllaceae)” (priority 2014, dated 2017).

Assays:
brine shrimp = conditions: result in words; cited from earlier work
Pseudomonas pseudomaliae = conditions: result in words; cited from earlier work
HIV-1 BaL = assay: anti-HIV bioassay: HIV-1 p24 production in infected PHA-activated PBMCs (ELISA, day 7); format: cell-based; conditions: PBMCs infected with HIV-1 BaL; result in words
Procedure: Stocks of crude drug made from G. officinale L. were prepared in Dimethyl sulfoxide (DMSO) in a stock solution of 10 mg/ml. Dilutions from the stock were made and the final concentration of DMSO in the cultures was always <0.1% to avoid cell toxicity. Peripheral blood mononuclear cells (PBMCs) were separated from buffy coats of HIV-1 seronegative donors (New York Blood Center, NY) by density centrifugation over Ficoll-Hypaque (Sigma). Briefly, the buffy coat suspension was diluted 1:2 with phosphate-buffered saline solution (PBS). Then, 35 ml were layered onto 15 ml of Ficoll® Paque PLUS (GE Healthcare), a ready to use sterile medium for isolation of lymphocytes and were centrifuged by standard ficoll-paque gradient centrifugation according to manufacturer's protocol (GE Healthcare) for 25 min at 400×g. The white interphase containing the PBMCs was collected and washed three times with PBS. […] On day 7, HIV-1 p24 protein production in the culture supernatant was measured using a commercial ELISA kit (Coulter, Hialeah, Fla.) and cell viability using a colorimetric MTT kit (Roche). […] The quantity of formazan produced (absorbance at 490 nm) is directly proportional to the number of living cells. […] MTT conversion to formazan by mitochondrial dehydrogenase was assayed by optical density at 490 nm measured in an ELISA plate reader. […]

3 cancer cell lines = assay: cell proliferation assay against cancer cell lines; format: cell-based; conditions: result in words

Molecule | brine shrimp toxicity (brine shrimp) | antibacterial activity against Pseudomonas pseudomaliae (Pseudomonas pseudomaliae) | Anti-HIV-1 activity (HIV-1 BaL) | activity against 3 cancer cell lines (3 cancer cell lines)
guaianin N | toxicity | antibacterial activity | – | –
CC1(C)CC[C@]2(C(=O)O)CC[C@]3(C)C(=CC[C@@H]4[C@@]5(C)CC[C@H](O[C@@H]6OC[C@@H](O)[C@H](OC7O[C@H](CO)[C@H](O)[C@H](O)[C@H]7O)[C@H]6O)C(C)(C)[C@@H]5CC[C@]43C)[C@@H]2C1 (stereo partly shown) [HL-038] | – | – | moderate activity | moderate activity
